Assay results taken from patent US7064120B2, “Tricyclic pyridyl carboxamides and derivatives thereof tocolytic oxytocin receptor antagonists” (Wyeth, priority 2001, dated 2006).

Target: T1, human vasopressin V2 receptor subtype (Homo sapiens, UniProt P30518)
T1 construct: host or cells: CHO cells, stably transfected (pZeoSV vector)
Assay: Vasopressin binding in CHO cell membranes expressing human vasopressin V2 subtype receptors ([3H]arginine vasopressin radioligand binding)
Details: 100 nM
In short: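 Membranes from CHO cells stably expressing human V2 receptor (25 to 50 μg protein/well) incubated 60 min at room temperature with [3H]arginine vasopressin in Tris-HCl pH 7.4 buffer with MgCl2, BSA and protease inhibitors. Filtration, scintillation counting; percent inhibition at one concentration or IC50 (nM).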

T1 sequence (P30518 whole entry): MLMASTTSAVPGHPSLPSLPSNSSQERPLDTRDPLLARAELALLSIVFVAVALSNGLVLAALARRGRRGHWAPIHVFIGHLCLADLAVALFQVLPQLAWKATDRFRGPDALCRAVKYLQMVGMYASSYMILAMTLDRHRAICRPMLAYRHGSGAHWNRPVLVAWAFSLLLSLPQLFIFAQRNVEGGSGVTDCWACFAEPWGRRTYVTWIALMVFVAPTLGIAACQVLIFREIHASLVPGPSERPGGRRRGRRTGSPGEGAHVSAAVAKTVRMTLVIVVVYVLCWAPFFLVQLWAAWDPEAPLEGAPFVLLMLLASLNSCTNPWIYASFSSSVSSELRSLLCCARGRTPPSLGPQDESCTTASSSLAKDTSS

Compound | inhibition at 0.1 µM [%] | V2 % inhibition @ 100 nM [%]
COc1cccc(-c2ccc(C(=O)N3Cc4ccc(C(=O)NCc5ccncc5)n4Cc4ccccc43)cc2OC)c1 [Example 98] | – | 10
COc1cc(-c2ccccc2C)c(Cl)cc1C(=O)N1Cc2ccc(C(=O)N(C)Cc3cccnc3)n2Cc2ccccc21 [Example 107, 10-[(6-Chloro-3-methoxy-2′-methyl-[1,1′-biphenyl]-4-yl)carbonyl]-N-methyl-N-(3-pyridinylmethyl)-10,11-dihydro-5H-pyrrolo[2,1-c][1,4]benzodiazepine-3-carboxamide] | 30 | –
COc1cccc(-c2ccc(C(=O)N3Cc4ccc(C(=O)N(C)Cc5cccnc5)n4Cc4ccccc43)cc2OC)c1 [Example 110] | – | 32
COc1cccc(-c2ccc(C(=O)N3Cc4ccc(C(=O)N5CCN(c6ccncc6)CC5)n4Cc4ccccc43)cc2C)c1 [Example 115, {10-[(3′-Methoxy-2-methyl-[1,1′-biphenyl]-4-yl)carbonyl]-10,11-dihydro-5H-pyrrolo[2,1-c][1,4]benzodiazepin-3-yl}[4-(4-pyridinyl)-1-piperazinyl]methanone] | 8 | –
COc1cc(C(=O)N2Cc3ccc(C(=O)N4CCN(c5ccncc5)CC4)n3Cc3ccccc32)ccc1-n1c(C)ccc1C [Example 146, {10-[4-(2,5-Dimethyl-1H-pyrrol-1-yl)-3-methoxybenzoyl]-10,11-dihydro-5H-pyrrolo[2,1-c][1,4]benzodiazepin-3-yl}[4-(pyridin-4-yl)-1-piperazinyl]methanone] | 15 | –
COc1ccccc1-c1ccc(C(=O)N2Cc3ccc(C(=O)N4CCCCC4c4cccnc4)n3Cc3ccccc32)cc1C (stereo not drawn) [Example 138, {10-[(2′-Methoxy-2-methyl-[1,1′-biphenyl]-4-yl)carbonyl]-10,11-dihydro-5H-pyrrolo[2,1-c][1,4]benzodiazepin-3-yl}[2-(3-pyridinyl)-1-piperidinyl]methanone] | 42 | –
Cc1ccccc1-c1ccc(C(=O)N2Cc3ccc(C(=O)N4CCN(c5ccncc5)CC4)n3Cc3ccccc32)cc1 [Example 117, {10-[(2′-Methyl-[1,1′-biphenyl]-4-yl)carbonyl]-10,11-dihydro-5H-pyrrolo[2,1-c][1,4]benzodiazepin-3-yl}[4-(4-pyridinyl)-1-piperazinyl]methanone] | 4 | –
COc1ccccc1-c1ccc(C(=O)N2Cc3ccc(C(=O)N4CCN(c5ccncc5)CC4)n3Cc3ccccc32)cc1OC [Example 122, {10-[(2,2′-Dimethoxy-[1,1′-biphenyl]-4-yl)carbonyl]-10,11-dihydro-5H-pyrrolo[2,1-c][1,4]benzodiazepin-3-yl}[4-(4-pyridinyl)-1-piperazinyl]methanone] | -10 | –
COc1cc(C(=O)N2Cc3ccc(C(=O)N4CCN(c5ccncc5)CC4)n3Cc3ccccc32)ccc1-c1ccccc1C [Example 118] | – | −10
COc1cc(-c2ccccc2C)c(Cl)cc1C(=O)N1Cc2ccc(C(=O)N3CCCCC3c3cccnc3)n2Cc2ccccc21 (stereo not drawn) [Example 140, {10-[(6-Chloro-3-methoxy-2′-methyl-[1,1′-biphenyl]-4-yl)carbonyl]-10,11-dihydro-5H-pyrrolo[2,1-c][1,4]benzodiazepin-3-yl}[2-(3-pyridinyl)-1-piperidinyl]methanone] | 29 | –
COc1cccc(-c2cc(OC)c(C(=O)N3Cc4ccc(C(=O)NCCc5ccccn5)n4Cc4ccccc43)cc2Cl)c1 [Example 56, 10-[(6-Chloro-3,3′-dimethoxy-[1,1′-biphenyl]-4-yl)carbonyl]-N-[2-(2-pyridinyl)ethyl]-10,11-dihydro-5H-pyrrolo[2,1-c][1,4]benzodiazepine-3-carboxamide] | 11 | –
COc1cccc(-c2cc(OC)c(C(=O)N3Cc4ccc(C(=O)N5CCN(c6ccncc6)CC5)n4Cc4ccccc43)cc2Cl)c1 [Example 120, {10-[(6-Chloro-3,3′-dimethoxy-[1,1′-biphenyl]-4-yl)carbonyl]-10,11-dihydro-5H-pyrrolo[2,1-c][1,4]benzodiazepin-3-yl}[4-(4-pyridinyl)-1-piperazinyl]methanone] | 16 | –

The next lines start with results.

inhibition at 0.1 µM [%] | Compound | V2 % inhibition @ 100 nM [%]
19 | COc1ccccc1-c1ccc(C(=O)N2Cc3ccc(C(=O)NCc4cccnc4)n3Cc3ccccc32)cc1OC [Example 45, 10-[(2,2′-Dimethoxy-[1,1′-biphenyl]-4-yl)carbonyl]-N-(3-pyridinylmethyl)-10,11-dihydro-5H-pyrrolo[2,1-c][1,4]benzodiazepine-3-carboxamide] | –
13 | Cc1ccccc1-c1ccc(C(=O)N2Cc3ccc(C(=O)NCCc4ccccn4)n3Cc3ccccc32)cc1 [Example 53, 10-[(2′-Methyl-[1,1′-biphenyl]-4-yl)carbonyl]-N-[2-(2-pyridinyl)ethyl]-10,11-dihydro-5H-pyrrolo[2,1-c][1,4]benzodiazepine-3-carboxamide] | –
8 | COc1cc(-c2ccccc2C)c(Cl)cc1C(=O)N1Cc2ccc(C(=O)NCc3cccnc3)n2Cc2ccccc21 [Example 42, 10-[(6-Chloro-3-methoxy-2′-methyl-[1,1′-biphenyl]-4-yl)carbonyl]-N-(3-pyridinylmethyl)-10,11-dihydro-5H-pyrrolo[2,1-c][1,4]benzodiazepine-3-carboxamide] | –
20 | COc1cc(C(=O)N2Cc3ccc(C(=O)NCc4ccccn4)n3Cc3ccccc32)ccc1-c1ccccc1C [Example 28, 10-[(2-Methoxy-2′-methyl-[1,1′-biphenyl]-4-yl)carbonyl]-N-(2-pyridinylmethyl)-10,11-dihydro-5H-pyrrolo[2,1-c][1,4]benzodiazepine-3-carboxamide] | –
11 | COc1ccccc1-c1ccc(C(=O)N2Cc3ccc(C(=O)NCc4cccnc4)n3Cc3ccccc32)cc1 [Example 39, 10-[(2′-Methoxy-[1,1′-biphenyl]-4-yl)carbonyl]-N-(3-pyridinylmethyl)-10,11-dihydro-5H-pyrrolo[2,1-c][1,4]benzodiazepine-3-carboxamide] | –
9 | Cc1cc(C(=O)N2Cc3ccc(C(=O)NCc4cccnc4)n3Cc3ccccc32)ccc1-c1ccccc1C(F)(F)F [Example 48, 10-{[2-Methyl-2′-trifluoromethyl-[1,1′-biphenyl]-4-yl]carbonyl}-N-(3-pyridinylmethyl)-10,11-dihydro-5H-pyrrolo[2,1-c][1,4]benzodiazepine-3-carboxamide] | –
23 | COc1ccccc1-c1ccc(C(=O)N2Cc3ccc(C(=O)NCc4ccccn4)n3Cc3ccccc32)cc1 [Example 26, 10-[(2′-Methoxy-[1,1′-biphenyl]-4-yl)carbonyl]-N-(2-pyridinylmethyl)-10,11-dihydro-5H-pyrrolo[2,1-c][1,4]benzodiazepine-3-carboxamide] | –
4 | COc1cccc(-c2ccc(C(=O)N3Cc4ccc(C(=O)NCCc5ccccn5)n4Cc4ccccc43)cc2OC)c1 [Example 59, 10-[(2,3′-Dimethoxy-[1,1′-biphenyl]-4-yl)carbonyl]-N-[2-(2-pyridinyl)ethyl]-10,11-dihydro-5H-pyrrolo[2,1-c][1,4]benzodiazepine-3-carboxamide] | –
31 | COc1cc(C(=O)N2Cc3ccc(C(=O)NCc4cccnc4)n3Cc3ccccc32)ccc1-c1cccc2ccccc12 [Example 44, 10-[3-Methoxy-4-(naphthalen-1-yl)benzoyl]-N-(3-pyridinylmethyl)-10,11-dihydro-5H-pyrrolo[2,1-c][1,4]benzodiazepine-3-carboxamide] | –
